Laboratory results from patent US9260439B2, “Dihydropyrrolopyrimidine derivatives” (PFIZER INC., priority 2014, dated 2016).

Each molecule was assayed against truncated PI3Kα (p110α/iSH2 p85α) (Homo sapiens (Human), UniProt P42336) (assay: PI3KA_Act fluorescence polarization kinase assay (Ki)). Conditions: 1 mM ATP.
Format: biochemical
Summary of the method: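 p110α/iSH2 p85α (0.5 nM) was reacted with 30 μM sonicated PIP2 in 50 mM HEPES pH 7.4, 150 mM NaCl, 5 mM MgCl2, 1 mM DTT and 0.05% CHAPS for 30 min at room temperature, then stopped with EDTA. PIP3 was detected by fluorescence polarization (GST-Grp1 PH domain/TAMRA-PIP3), and Ki came from a Morrison tight-binding fit.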

truncated PI3Kα (p110α/iSH2 p85α), sequence (P42336 whole entry, the tested form may be a part): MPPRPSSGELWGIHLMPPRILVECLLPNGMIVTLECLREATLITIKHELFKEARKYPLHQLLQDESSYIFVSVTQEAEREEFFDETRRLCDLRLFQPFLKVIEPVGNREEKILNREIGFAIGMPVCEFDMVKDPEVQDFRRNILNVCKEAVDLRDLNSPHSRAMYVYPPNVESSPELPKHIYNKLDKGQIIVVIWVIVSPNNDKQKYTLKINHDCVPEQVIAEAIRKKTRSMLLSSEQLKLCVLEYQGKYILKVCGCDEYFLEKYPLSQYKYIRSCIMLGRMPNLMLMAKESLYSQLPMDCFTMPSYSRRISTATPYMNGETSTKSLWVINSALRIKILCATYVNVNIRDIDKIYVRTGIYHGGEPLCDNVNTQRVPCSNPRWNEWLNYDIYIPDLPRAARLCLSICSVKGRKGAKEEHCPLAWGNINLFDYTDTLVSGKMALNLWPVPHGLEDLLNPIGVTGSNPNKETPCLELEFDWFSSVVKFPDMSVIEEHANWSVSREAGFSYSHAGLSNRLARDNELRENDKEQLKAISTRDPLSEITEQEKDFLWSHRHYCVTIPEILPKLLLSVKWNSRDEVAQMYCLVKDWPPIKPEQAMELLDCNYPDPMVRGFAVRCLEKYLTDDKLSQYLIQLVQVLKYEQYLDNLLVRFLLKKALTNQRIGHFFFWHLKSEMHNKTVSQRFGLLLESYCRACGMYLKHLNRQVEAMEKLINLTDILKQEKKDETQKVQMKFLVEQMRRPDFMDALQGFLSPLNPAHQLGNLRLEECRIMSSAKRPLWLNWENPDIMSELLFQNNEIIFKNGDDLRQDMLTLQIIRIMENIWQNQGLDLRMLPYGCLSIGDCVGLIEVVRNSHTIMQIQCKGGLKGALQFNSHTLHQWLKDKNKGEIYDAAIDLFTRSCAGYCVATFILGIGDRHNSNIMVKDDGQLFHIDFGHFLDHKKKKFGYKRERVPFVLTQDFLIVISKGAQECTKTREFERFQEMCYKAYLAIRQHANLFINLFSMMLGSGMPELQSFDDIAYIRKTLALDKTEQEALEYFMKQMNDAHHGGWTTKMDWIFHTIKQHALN

Compound | PI3KA_Act Ki
C[C@]1(N2CCc3c(-c4cnc(N)nc4)nc(N4CCOCC4)nc32)CCN(C(=O)C2CCN2)C1.Cl (stereo partly drawn) [Example 348, {(3S)-3-[4-(2-aminopyrimidin-5-yl)-2-(morpholin-4-yl)-5,6-dihydro-7H-pyrrolo[2,3-d]pyrimidin-7-yl]-3-methylpyrrolidin-1-yl}(azetidin-2-yl)methanone hydrochloride] | 66 pM
C[C@]1(N2CCc3c(-c4cnc(N)nc4)nc(N4CCOCC4)nc32)CCN(C(=O)C2CNC2)C1.Cl [Example 349, {(3S)-3-[4-(2-aminopyrimidin-5-yl)-2-(morpholin-4-yl)-5,6-dihydro-7H-pyrrolo[2,3-d]pyrimidin-7-yl]-3-methylpyrrolidin-1-yl}(azetidin-3-yl)methanone hydrochloride] | 26 pM
C[C@]1(N2CCc3c(-c4cnc(N)nc4)nc(N4CCOCC4)nc32)CCN(C(=O)[C@]2(C)CCN2)C1.Cl [Example 350, {(3S)-3-[4-(2-aminopyrimidin-5-yl)-2-(morpholin-4-yl)-5,6-dihydro-7H-pyrrolo[2,3-d]pyrimidin-7-yl]-3-methylpyrrolidin-1-yl}[(2S)-2-methylazetidin-2-yl]methanone hydrochloride] | 45 pM
C[C@]1(N2CCc3c(-c4cnc(N)nc4)nc(N4CCOCC4)nc32)CCN(C(=O)[C@@]2(C)CCN2)C1 [Example 351, {(3S)-3-[4-(2-aminopyrimidin-5-yl)-2-(morpholin-4-yl)-5,6-dihydro-7H-pyrrolo[2,3-d]pyrimidin-7-yl]-3-methylpyrrolidin-1-yl}[(2R)-2-methylazetidin-2-yl]methanone] | 59 pM
C[C@]1(N2CCc3c(-c4cnc(N)nc4)nc(N4CCOCC4)nc32)CCN(C(=O)C2(F)CNC2)C1.Cl [Example 352, {(3S)-3-[4-(2-aminopyrimidin-5-yl)-2-(morpholin-4-yl)-5,6-dihydro-7H-pyrrolo[2,3-d]pyrimidin-7-yl]-3-methylpyrrolidin-1-yl}(3-fluoroazetidin-3-yl)methanone hydrochloride] | <18 pM
CN1CC[C@@H]1C(=O)N1CC[C@](C)(N2CCc3c(-c4cnc(N)nc4)nc(N4CCOCC4)nc32)C1 [Example 353, {(3S)-3-[4-(2-aminopyrimidin-5-yl)-2-(morpholin-4-yl)-5,6-dihydro-7H-pyrrolo[2,3-d]pyrimidin-7-yl]-3-methylpyrrolidin-1-yl}[(2R)-1-methylazetidin-2-yl]methanone] | 78 pM
CN1CC[C@H]1C(=O)N1CC[C@](C)(N2CCc3c(-c4cnc(N)nc4)nc(N4CCOCC4)nc32)C1 [Example 354, {(3S)-3-[4-(2-aminopyrimidin-5-yl)-2-(morpholin-4-yl)-5,6-dihydro-7H-pyrrolo[2,3-d]pyrimidin-7-yl]-3-methylpyrrolidin-1-yl}[(2S)-1-methylazetidin-2-yl]methanone] | 49 pM
CN1CCC1(C)C(=O)N1CC[C@](C)(N2CCc3c(-c4cnc(N)nc4)nc(N4CCOCC4)nc32)C1 (stereo partly drawn) [Example 355, {(3S)-3-[4-(2-aminopyrimidin-5-yl)-2-(morpholin-4-yl)-5,6-dihydro-7H-pyrrolo[2,3-d]pyrimidin-7-yl]-3-methylpyrrolidin-1-yl}(1,2-dimethylazetidin-2-yl)methanone] | 102 pM
CN1CC(C(=O)N2CC[C@](C)(N3CCc4c(-c5cnc(N)nc5)nc(N5CCOCC5)nc43)C2)C1 [Example 356, {(3S)-3-[4-(2-aminopyrimidin-5-yl)-2-(morpholin-4-yl)-5,6-dihydro-7H-pyrrolo[2,3-d]pyrimidin-7-yl]-3-methylpyrrolidin-1-yl}(1-methylazetidin-3-yl)methanone] | 37 pM
CC(C)(C)OC(=O)N1CC[C@H]1C(=O)N1CC[C@@](C)(N2CCc3c(-c4cnc(N)nc4)nc(N4CCOCC4)nc32)C1 [Example 357, tert-butyl (2S)-2-({(3R)-3-[4-(2-aminopyrimidin-5-yl)-2-(morpholin-4-yl)-5,6-dihydro-7H-pyrrolo[2,3-d]pyrimidin-7-yl]-3-methylpyrrolidin-1-yl}carbonyl)azetidine-1-carboxylate] | 144 pM
CC(C)(C)OC(=O)N1CCC1C(=O)N1CC[C@](C)(N2CCc3c(-c4cnc(N)nc4)nc(N4CCOCC4)nc32)C1 (stereo partly drawn) [Example 358, tert-butyl 2-({(3S)-3-[4-(2-aminopyrimidin-5-yl)-2-(morpholin-4-yl)-5,6-dihydro-7H-pyrrolo[2,3-d]pyrimidin-7-yl]-3-methylpyrrolidin-1-yl}carbonyl)azetidine-1-carboxylate] | 171 pM
CC(C)(C)OC(=O)N1CC(F)(C(=O)N2CC[C@](C)(N3CCc4c(-c5cnc(N)nc5)nc(N5CCOCC5)nc43)C2)C1 [Example 359, tert-butyl 3-({(3S)-3-[4-(2-aminopyrimidin-5-yl)-2-(morpholin-4-yl)-5,6-dihydro-7H-pyrrolo[2,3-d]pyrimidin-7-yl]-3-methylpyrrolidin-1-yl}carbonyl)-3-fluoroazetidine-1-carboxylate] | 128 pM
C[C@]1(N2CCc3c(-c4cnc(N)nc4)nc(N4CCOCC4)nc32)CCN(C(=O)N2CCC2)C1 [Example 360, {(3S)-3-[4-(2-aminopyrimidin-5-yl)-2-(morpholin-4-yl)-5,6-dihydro-7H-pyrrolo[2,3-d]pyrimidin-7-yl]-3-methylpyrrolidin-1-yl}(azetidin-1-yl)methanone] | <18 pM
C[C@@]1(N2CCc3c(-c4cnc(N)nc4)nc(N4CCOCC4)nc32)CCN(C(=O)N2CCC2)C1 [Example 361, {(3R)-3-[4-(2-aminopyrimidin-5-yl)-2-(morpholin-4-yl)-5,6-dihydro-7H-pyrrolo[2,3-d]pyrimidin-7-yl]-3-methylpyrrolidin-1-yl}(azetidin-1-yl)methanone] | 78 pM
CC1(C)CN[C@@H]1C(=O)N1CC[C@](C)(N2CCc3c(-c4cnc(N)nc4)nc(N4CCOCC4)nc32)C1.Cl [Example 362, {(3S)-3-[4-(2-aminopyrimidin-5-yl)-2-(morpholin-4-yl)-5,6-dihydro-7H-pyrrolo[2,3-d]pyrimidin-7-yl]-3-methylpyrrolidin-1-yl}[(2S)-3,3-dimethylazetidin-2-yl]methanone hydrochloride] | 41 pM
C[C@]1(N2CCc3c(-c4cnc(N)nc4)nc(N4CCOCC4)nc32)CCN(C(=O)N2CC(C#N)C2)C1 [Example 363, 1-({(3S)-3-[4-(2-aminopyrimidin-5-yl)-2-(morpholin-4-yl)-5,6-dihydro-7H-pyrrolo[2,3-d]pyrimidin-7-yl]-3-methylpyrrolidin-1-yl}carbonyl)azetidine-3-carbonitrile] | 39 pM
C[C@@]1(N2CCc3c(-c4cnc(N)nc4)nc(N4CCOCC4)nc32)CCN(C(=O)N2CC(C#N)C2)C1 [Example 364, 1-({(3R)-3-[4-(2-aminopyrimidin-5-yl)-2-(morpholin-4-yl)-5,6-dihydro-7H-pyrrolo[2,3-d]pyrimidin-7-yl]-3-methylpyrrolidin-1-yl}carbonyl)azetidine-3-carbonitrile] | 262 pM
C[C@@]1(N2CCc3c(-c4cnc(N)nc4)nc(N4CCOCC4)nc32)CCN(C(=O)N2CC(O)C2)C1 [Example 365, {(3R)-3-[4-(2-aminopyrimidin-5-yl)-2-(morpholin-4-yl)-5,6-dihydro-7H-pyrrolo[2,3-d]pyrimidin-7-yl]-3-methylpyrrolidin-1-yl}(3-hydroxyazetidin-1-yl)methanone] | 63 pM
C[C@]1(N2CCc3c(-c4cnc(N)nc4)nc(N4CCOCC4)nc32)CCN(C(=O)N2CC(O)C2)C1 [Example 366, {(3S)-3-[4-(2-aminopyrimidin-5-yl)-2-(morpholin-4-yl)-5,6-dihydro-7H-pyrrolo[2,3-d]pyrimidin-7-yl]-3-methylpyrrolidin-1-yl}(3-hydroxyazetidin-1-yl)methanone] | 21 pM
COC1CN(C(=O)N2CC[C@](C)(N3CCc4c(-c5cnc(N)nc5)nc(N5CCOCC5)nc43)C2)C1 [Example 367, {(3S)-3-[4-(2-aminopyrimidin-5-yl)-2-(morpholin-4-yl)-5,6-dihydro-7H-pyrrolo[2,3-d]pyrimidin-7-yl]-3-methylpyrrolidin-1-yl}(3-methoxyazetidin-1-yl)methanone] | <18 pM
COC1CN(C(=O)N2CC[C@@](C)(N3CCc4c(-c5cnc(N)nc5)nc(N5CCOCC5)nc43)C2)C1 [Example 368, {(3R)-3-[4-(2-aminopyrimidin-5-yl)-2-(morpholin-4-yl)-5,6-dihydro-7H-pyrrolo[2,3-d]pyrimidin-7-yl]-3-methylpyrrolidin-1-yl}(3-methoxyazetidin-1-yl)methanone] | 127 pM
CC1(O)CN(C(=O)N2CC[C@](C)(N3CCc4c(-c5cnc(N)nc5)nc(N5CCOCC5)nc43)C2)C1 [Example 369, {(3S)-3-[4-(2-aminopyrimidin-5-yl)-2-(morpholin-4-yl)-5,6-dihydro-7H-pyrrolo[2,3-d]pyrimidin-7-yl]-3-methylpyrrolidin-1-yl}(3-hydroxy-3-methylazetidin-1-yl)methanone] | <18 pM
CC(C)(C)OC(=O)N1CC[C@H]1C(=O)N1CC[C@](C)(N2CCc3c(-c4cnc(N)nc4)nc(N4CCOCC4)nc32)C1 [Example 370, tert-butyl (2S)-2-({(3S)-3-[4-(2-aminopyrimidin-5-yl)-2-(morpholin-4-yl)-5,6-dihydro-7H-pyrrolo[2,3-d]pyrimidin-7-yl]-3-methylpyrrolidin-1-yl}carbonyl)azetidine-1-carboxylate] | 184 pM
C[C@]1(N2CCc3c(-c4cnc(N)nc4)nc(N4CCOCC4)nc32)CCN(C(=O)[C@@H]2CCCO2)C1 [Example 371, {(3S)-3-[4-(2-aminopyrimidin-5-yl)-2-(morpholin-4-yl)-5,6-dihydro-7H-pyrrolo[2,3-d]pyrimidin-7-yl]-3-methylpyrrolidin-1-yl}[(2S)-tetrahydrofuran-2-yl]methanone] | 91 pM
